Values of other authors as cited in patent US20090062369A1, “USE OF SECRETORY PHOSPHOLIPASE A2 (SPLA2) INHIBITORS TO DECREASE SPLA2 LEVELS” (priority 2007, published 2009).

System: sPLA2
Conditions: cited from earlier work

CCc1c(C(=O)C(N)=O)c2c(OCC(=O)O)cccc2n1Cc1ccccc1 [A-001, ((3-(2-Amino-1,2-dioxoethyl)-2-ethyl-1-(phenylmethyl)-1H-indol-4-yl)oxy)acetic acid]
mode of sPLA2 inhibition: competitively inhibits sPLA2
